Reference: patent publication US10414721B1, “Inhibitor of endocannabinoid cellular reuptake” (University of Bern, priority 2018, dated 2019)
Where two headings read alike, the source gives them in different places.

Tests used:
[1] = Oral bioavailability and tissue distribution; format: in vivo, mouse; conditions: for Cmax: read-out: apparent Cmax in plasma; for concentration at 20 min: oral, read-out: plasma level
Method: Male C57BL6/J or male BALB/c mice were orally administered by gavage with 10, 25, 50 or 100 mg/kg of WOBE437 (100 μL; olive oil and ethanol 8:2) using a metal feeding needle (20G, Kent Scientific, USA). The mice were sacrificed by decapitation after gavage administration. Brain, blood, liver, kidney and spleen were collected for the LC-MS/MS analyses. All tissues were briefly washed with ice cold PBS and immediately snap-frozen and stored at −80° C. Whole brain samples were dissected between the hemispheres. Blood samples were immediately centrifuged to obtain plasma, which was stored at −80° C.
Samples extractions and LC-MS/MS measurements were performed as previously described (Chicca et al., 2017). Briefly, tissues were weighted and transferred in to extraction tubes containing three steel beads and 0.1 M formic acid. Tissues were homogenized and rapidly transferred to glass tubes containing 1.5 mL of ethyl acetate:hexane (9:1) 0.1% formic acid and internal standards (ISs). Samples were centrifuged and the organic phase was recovered. After evaporation, the extracts were reconstituted in 200 μL of ACN:ddH2O (8:2). 10 μL of the solution were injected in the LC-MS/MS system using the same LC and ionization protocols as described (Chicca et al., 2017).

[2] = test system: BALB/c mice; test: Tetrad test after i.p. administration; format: in vivo, mouse
Method: WOBE437 was initially assessed in a battery of four individual tests typically associated with CB1 receptor activation in mice (nociception, locomotion, body temperature and cataleptic behavior), collectively referred to as the “tetrad”. Dose-response experiments identified 10 mg/kg as the lowest dose to elicit a moderate but complete tetrad in BALB/c mice upon intraperitoneal (i.p.) administration (FIGS. 3A-D). […] To assess whether the WOBE437-induced effects were CB1 receptor-mediated, mice were pre-treated with the selective antagonist/inverse agonist rimonabant (SR1). […] These experiments provided a proof-of-concept for the mechanism of action of WOBE437 as a novel “indirect CB1 receptor agonist”. In subsequent studies, the effects of WOBE437 in pain, inflammatory and anxiety models were investigated. […] Both effects were reversed by SR1.
WOBE437 and RX-055 were tested in independent laboratories, in different mouse strains and in multiple (behavioral) models for cannabimimetic, analgesic, anti-inflammatory and anxiolytic-effects in wild-type and phenotypical CB1-KO mice as described in Chicca 2017.

[3] = test system: 2-AG uptake in U937 cells; test: 2-AG uptake inhibition in U937 cells; format: cell-based
Method: All radioactivity-based AEA and 2-AG uptake and release assays performed in U937, and HMC-1 cells were carried out using two different assay formats as previously reported. AEA and 2-AG uptake assay in Neuro2a and primary mouse cortical neurons were performed with a different method disclosed in Chicca 2017.

[4] = test system: cell lines and human whole blood; test: NAE levels in cell lines and human whole blood; format: cell-based
Text: WOBE437, AEA, 2-AG, other lipids and hormones were quantified by LC-MS/MS in different biological matrices (cells, human whole blood, rodent tissues) as reported in Chicca 2017.

[5] = target: CB1 receptor (Homo sapiens, UniProt P21554); test: CB1 receptor binding assay
CB1 receptor, sequence (P21554 whole entry): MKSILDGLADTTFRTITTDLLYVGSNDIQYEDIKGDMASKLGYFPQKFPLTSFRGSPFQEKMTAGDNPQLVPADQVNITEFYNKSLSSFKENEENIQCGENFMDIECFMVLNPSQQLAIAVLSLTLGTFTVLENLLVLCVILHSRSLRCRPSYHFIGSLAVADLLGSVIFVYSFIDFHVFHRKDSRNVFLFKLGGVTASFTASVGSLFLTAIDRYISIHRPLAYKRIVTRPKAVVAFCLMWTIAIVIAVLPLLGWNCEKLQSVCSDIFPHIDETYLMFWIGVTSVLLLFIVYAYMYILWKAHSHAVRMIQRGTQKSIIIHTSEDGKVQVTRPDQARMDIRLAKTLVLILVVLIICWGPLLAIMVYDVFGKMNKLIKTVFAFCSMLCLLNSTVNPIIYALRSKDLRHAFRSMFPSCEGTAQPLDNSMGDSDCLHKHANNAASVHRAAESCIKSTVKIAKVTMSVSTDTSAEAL
Method: CB1 and CB2 receptor binding assays [^35S]GTPγS assays were performed as previously described. WOBE437 was profiled in more detail in an extended CNS adverse drug reaction screening panel (CEREP).

[6] = target: T1, ABHD6 (Mus musculus, UniProt Q8R2Y0); test: ABHD6 activity (ABPP and radioactivity-based hydrolytic assays); format: biochemical; conditions: ABPP in mouse brain homogenate and hydrolytic assays
T1 construct: membrane preparations obtained from mouse brains; from tissue; host or cells: mouse brain membranes
T1 sequence (Q8R2Y0 whole entry): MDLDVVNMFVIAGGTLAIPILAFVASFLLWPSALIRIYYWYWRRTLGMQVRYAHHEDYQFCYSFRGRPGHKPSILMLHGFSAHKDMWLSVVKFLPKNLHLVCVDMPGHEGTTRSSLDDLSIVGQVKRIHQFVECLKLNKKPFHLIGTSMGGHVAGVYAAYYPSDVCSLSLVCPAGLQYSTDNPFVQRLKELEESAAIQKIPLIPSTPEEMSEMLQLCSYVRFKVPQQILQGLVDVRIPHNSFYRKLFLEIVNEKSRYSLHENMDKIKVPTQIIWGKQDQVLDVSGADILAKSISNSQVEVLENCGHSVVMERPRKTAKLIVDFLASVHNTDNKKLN
Method: (§1) ABPP experiments were performed using membrane preparations obtained from mouse brains as described earlier.
(§2) FAAH, ABHDs, MAGL and COX-2 activity assays were performed using cell homogenates, human recombinant enzymes and mouse, rat and pig brain homogenates as previously described.

[7] = Microsomal clearance, mouse liver microsomes; format: in vitro ADME
Method: Human or mice microsome clearance experiment were carried out as according to a previously describe protocol. Briefly, microsome preparation (0.5 mg/mL) plus cofactor NADPH solution was incubated with 1 μM of WOBE437 in 96-well plates at 37° C. After 1, 3, 6, 9, 15, 25, 35 and 45 min, 40 μL of the preparation was transferred and quenched with 3:1 (v/v) acetonitrile containing internal standards. Samples were then cooled and centrifuged before analysis by LC-MS/MS. Log peak area ratios (test compound peak area/internal standard peak area) are plotted against incubation time using a linear fit. The calculated slope is used to determine the intrinsic clearance. Data are obtained from single experiments measured with multiple time-points.

[8] = test system: BALB/c male mice; test: Hot plate test after oral administration; format: in vivo, mouse
Method: (§3) Acute pain was evaluated 1 h after gavage administration of WOBE437, at 10, 25, 50 and 100 mg/kg in BALB/c mice. The test was performed using a clean 54-56° C. hot plate (Thermo Scientific, USA) with a Plexiglas cylinder. The latency to show the first nociceptive response (paw lick or foot shake) was measured. In order to evaluate CB1 receptor antagonism, 5 mg/kg of rimonabant (Pharmasery AG, Switzerland) was injected intraperitoneally (i.p.) (20 μL, in DMSO) 30 min before WOBE437 administration.

[9] = Hot plate test after oral administration; format: in vivo, mouse; conditions: male, BALB/c, mouse, in vivo; from effective doses 50 mg/kg p.o. vs 10 mg/kg i.p.; read-out: overall bioavailability compared to the i.p. administration route
Method: as §3

[10] = target: T2, ABHD12 (Mus musculus, UniProt Q99LR1); test: ABHD12 activity (ABPP and radioactivity-based hydrolytic assays); format: biochemical; conditions: ABPP in mouse brain homogenate and hydrolytic assays
T2 construct: membrane preparations obtained from mouse brains; from tissue; host or cells: mouse brain membranes
T2 sequence (Q99LR1 whole entry): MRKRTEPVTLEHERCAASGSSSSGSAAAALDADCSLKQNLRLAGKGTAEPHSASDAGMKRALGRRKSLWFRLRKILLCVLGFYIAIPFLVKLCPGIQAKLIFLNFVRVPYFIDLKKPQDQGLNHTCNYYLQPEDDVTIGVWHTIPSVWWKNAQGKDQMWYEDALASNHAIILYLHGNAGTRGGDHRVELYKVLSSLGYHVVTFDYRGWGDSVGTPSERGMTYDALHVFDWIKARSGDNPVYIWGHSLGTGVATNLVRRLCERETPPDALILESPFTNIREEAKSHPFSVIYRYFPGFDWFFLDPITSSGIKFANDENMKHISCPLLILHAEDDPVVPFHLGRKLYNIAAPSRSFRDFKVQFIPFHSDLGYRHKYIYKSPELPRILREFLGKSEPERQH
Method: as §1, §2

## CCCCCCC/C=C/C=C/C(=O)NCCc1ccc(OC)c(OC)c1 [WOBE437, (2E,4E)-N-[2-(3,4-Dimethoxyphenyl)ethyl]dodeca-2,4-dienamide]
[1]; 10 mg/kg p.o., 20 min, C57BL6/J
  brain level: 24.7 ± 25.3 pmol/g
[1]; 50 mg/kg p.o.
  apparent volume of distribution (Vd) at Cmax: 80.4 L/kg
  apparent volume of distribution (Vd) at the steady state: 609 L/kg
  brain concentration 3 h after administration: 18 pmol/g
  drop of hepatic concentration between 20 and 40 min: 4 factor
  estimated concentration in brain: 399.7 ± 154.7 nM
  time until cleared from the brain: approximately 180 min
  Cmax: ~2000 nM
[1]; 50 mg/kg p.o. vs 10 mg/kg i.p.
  brain levels after p.o. as compared to i.p. (times lower): approximately 10 times
[1]; 50 mg/kg p.o., 20 min
  highest concentration in kidney: 2277 ± 916 pmol/g
  highest concentration in liver: 4720 ± 3273 pmol/g
  highest concentration in spleen: 1030 ± 339 pmol/g
[1]; 50 mg/kg p.o., 20 min, C57BL6/J
  brain level: 534.5 ± 109.9 pmol/g
[1]; 50 mg/kg p.o., 40 min
  hepatic concentration: 1080 pmol/g
[1]; male, C57BL6/J, mouse, brain, plasma, po, 50 mg/kg, 50 mg/kg p.o., read-out: tmax in brain and plasma
  Tmax: ≤ 20 min
[1]; male, C57BL6/J, mouse, kidney, liver, spleen, po, 50 mg/kg, 50 mg/kg p.o., read-out: tmax in kidney, liver and spleen (converted)
  Tmax: 20 min
[1]; male, C57BL6/J, mouse, plasma, po, 50 mg/kg, 50 mg/kg p.o.
  Cmax: 1930 ± 564 nM
[1]; male, mouse, plasma, 10 mg/kg p.o., 20 min, C57BL6/J
  concentration at 20 min: 47.3 ± 32.5 nM
[1]; male, mouse, plasma, 50 mg/kg p.o., 20 min, C57BL6/J
  concentration at 20 min: 1730 ± 703 nM
[2]; 3 mg/kg
  tetrad response: ineffective
[2]; 10 mg/kg
  tetrad response: full tetrad response
[2]; C57BL6/N background
  tetrad in CB1 receptor-deficient littermates: completely absent
[2]; hypothermia, catalepsy and antinociception
  tetrad effects after pre-treatment with rimonabant (SR1): completely blocked by SR1
[2]; i.p.
  hypothermia, catalepsy and antinociception compared to (R)-WIN55,212-2: significantly less pronounced
[2]; i.p., BALB/c mice
  lowest dose to elicit a complete tetrad: 10 mg/kg
[3]
  Hill slope, 2-AG uptake: −0.973
[3]; Homo sapiens, U-937, 1 μM total 2-AG
  IC50: 0.283 ± 0.121 µM
[4]
  levels of other NAEs: without altering the levels of other NAEs
[5]
  Ki: 17 µM
[6]
  inhibition of ABHD6: did not inhibit
[7]; 1 μM, preliminary
  clearance: 0.174 mL/min/kg
[7]; mouse, mice, from microsomal clearance, read-out: estimated maximal bioavailability
  bioavailability at 1 μM: 17%
[8]; 50 mg/kg p.o.
  increase of pain threshold vs vehicle: 61.7%
[8]; 50 mg/kg p.o., vehicle 5.8±0.9 s
  pain threshold (latency): 9.4 ± 1.9 s
[8]; 100 mg/kg p.o.
  pain threshold (latency): 11.7 ± 2.6 s
[8]; Mus musculus, po, hot plate, read-out: estimated effective dose (ED50)
  ED50: 42.5 ± 3.9 mg/kg
[8]; p.o., hot plate
  minimum dose to significantly increase pain threshold: 50 mg/kg
[8]; rimonabant 5 mg/kg i.p.
  antinociceptive effect after rimonabant pre-treatment: completely abolished
[9]
  bioavailability: 20%
[10]
  inhibition of ABHD12: did not inhibit
